From patent US5017723A, “Substituted ethylamines, their preparation process, their use as medicine and their synthesising agents” (Jouveinal S.A., priority 1990, dated 1991)
Read-outs that look alike come from different tables or passages of the source.

Assays:
bladder of the rat = assay: Transvesical cystomanometry on wide awake rat (urological activity); format: in vivo, female rat; settings: for change in vivo at 2.5 mg/kg / change in vivo at 1 mg/kg / change in vivo at 5 mg/kg: Rattus norvegicus, iv; for activity on the urinary tract compared to the reference compounds (in words): compared to Dicyclomine and Baclofen; for change in vivo at 1 mg/kg: 1,0 mg/kg i.v.; for change in vivo at 5 mg/kg: 5,0 mg/kg i.v.
Procedure: Studies by a similar method of operation, the compounds of the invention (I.A) which show a mu and kappa affinity also have an activity on certain functional parameters of the bladder of the rat which justifies their interest in the treatment of dysfunctions in the urinary tract.
The study carried out consists of transvesical cystomanometry on a wide awake rat. The following was measured during the storage and emission phases of urine under continuous intervesical perfusion of sterile physiological serum:
the "threshold pressure", which is the intervesical pressure immediately preceding the contraction phase of the detrusor
the volume of each urinary emission.
The technique used in the female rat consisted of preparing the animals 48 hours before the actual experiment by effecting the implantation of two catheters in the apex of the bladder and one catheter in the left-hand jugular vein under anaesthetic, with the external end of these catheters being protected and held by a sticking plaster corset.
The animals were placed in suitable cages at the time of the test, which were equipped so as to collect and measure the urine. For each animal one vesical catheter was connected to a pressure sensor, the other to a perfusor which supplied 0.2 ml/min. of sterile physiological serum continuously.
The intravesical pressure was measured continuously during the perfusion and it was possible to observe:
a filling phase of the bladder during which the pressure increased progressively,
a sudden rising phase of this pressure during the contraction of the detrusor: the "threshold" pressure which is the pressure observed just before the pressure of the contraction phase. This threshold pressure was raised in the same way as the urinary volume at each urination.
The study consisted of observing the changes in these parameters by the action of the products (IA) which were administered in solution by intravenous route by means of the catheter placed in the left jugular vein.
Dicyclomine and Baclofen which have been considered for the treatment of hyperactive bladders (Drugs of Today, Vol. 24, no. 5, 1988, p. 337-348) were also used in this test in the form of comparison products.

[1] = tested on: convulsion induced by picrotoxine in mice; assay: Protection against picrotoxine-induced convulsion (suppression of the tonic extension phase); format: in vivo, male Swiss mice; settings: for responders at 50 mg/kg: ip, 0.5 h, read-out: i.p.: % prot. (percentage of protected animals), 50 mg/kg i.p., picrotoxine 24 mg/kg i.p. 30 min later; for responders at 100 mg/kg: 1 h, read-out: p.o.: % prot. (percentage of protected animals), 100 mg/kg p.o., picrotoxine 24 mg/kg i.p. 60 min later
From the text: The psychotropic properties of the compounds have been determined by the protection of the induced convulsion by picrotoxine for mice, which is achieved by the method derived from that of Krall et al., "Epilepsia", 1978, 19, p. 409-428.
The administration of picrotoxine caused a convulsive crisis in the animal characterised by a myoclonic extension syndrome followed by the extension of the limbs causing the animal to die. Certain substances, particularly those active on the complex GABA/benzodiazepines/Cl-ionophore makes it possible to protect the animals from this convulsive crisis.
In practice the study is carried out on batches of 10 male "Swiss" mice weighing approximately 20 g, which are administered with the product to be studied in aqueous solution either by intraperitoneal route (i.p.) at the rate of 50 mg/kg and in a volume of 0.2 ml of solution per animal, or by oral route (p.o) in a volume of 2.0 ml of solution per animal.
An injection of a solution of picrotoxine at the rate of 24 mg/kg in a volume of 0.2 ml per animal is then administered by interperitoneal route, either 30 minutes after administering the product by interperitoneal route or 60 minutes after administering the product by oral route. The dose of the product injected causing a clonic crisis, which results in untreated animals dying. The suppression of the extension tonic phase in the animals treated under the conditions of the test is observed. The results are expressed:
either in percentages of protected animals of this phase to the reaction of 50 mg/kg of the compound of the study administered by i.p. route or 100 mg/kg by p.o route,
or in DE50 for each of these routes, which is the efficient dosage of the test compound expressed in mg/kg protecting 50% of the animals of this extension phase. The significant value of the results being generally indicated in the following manner:
* Significant result at p<0.05
** Significant result at p<0.01
*** Significant highly significant at p<0.001.

opiated delta receptor = target: T1, opiated delta receptor (Cavia porcellus, UniProt A0A286XTF2); assay: Displacement of specific radioactive ligands, opiated delta receptor; format: binding, guinea pig; settings: inhibition of 50% of radioligand bonds; read-out: CI50 affinity delta rec.
T1 construct: membranous receptors of a guinea pig; from tissue
Procedure: (§1) The analysis is carried out in accordance with the technique described by F. Roman et al. in J. Pharm. Pharmcol. 1987, 39, p. 404-407 which consists of analysing the displacement of specific radioactive ligands of the opiated mu, delta and kappa sub receptors by the action of the test products on the membranous receptors of a guinea pig.

opiated kappa receptor = target: T2, opiated kappa receptor (Cavia porcellus, UniProt P41144); assay: Displacement of specific radioactive ligands, opiated kappa receptor; format: binding, guinea pig; settings: inhibition of 50% of radioligand bonds; read-out: CI50 affinity kappa rec.
T2 construct: membranous receptors of a guinea pig; from tissue
Procedure: as §1

opiated mu receptor = opiated mu receptor (Cavia porcellus, UniProt A0ACM8Q262); format: binding, guinea pig
Procedure: as §1

[2] = read-out: % variation pressure threshold
[3] = Mus musculus, * p<0.05, ** p<0.01, *** p<0.001
[4] = Mus musculus, po, * p<0.05, ** p<0.01, *** p<0.001
[5] = inhibition of 50% of radioligand bonds; read-out: CI50 affinity mu rec.

opiated mu receptor, sequence (A0ACM8Q262 1-400): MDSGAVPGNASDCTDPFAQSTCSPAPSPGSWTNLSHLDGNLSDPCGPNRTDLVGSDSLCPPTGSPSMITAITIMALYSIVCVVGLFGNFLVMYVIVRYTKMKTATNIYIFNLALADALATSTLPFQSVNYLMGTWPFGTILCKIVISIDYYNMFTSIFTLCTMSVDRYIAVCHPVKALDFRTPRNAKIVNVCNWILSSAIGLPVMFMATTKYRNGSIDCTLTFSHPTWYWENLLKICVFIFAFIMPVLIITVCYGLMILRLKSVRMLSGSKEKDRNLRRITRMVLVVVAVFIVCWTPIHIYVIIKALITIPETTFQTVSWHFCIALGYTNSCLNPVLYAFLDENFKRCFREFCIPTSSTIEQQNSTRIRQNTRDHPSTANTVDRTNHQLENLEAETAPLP
T1 sequence (A0A286XTF2 1-366): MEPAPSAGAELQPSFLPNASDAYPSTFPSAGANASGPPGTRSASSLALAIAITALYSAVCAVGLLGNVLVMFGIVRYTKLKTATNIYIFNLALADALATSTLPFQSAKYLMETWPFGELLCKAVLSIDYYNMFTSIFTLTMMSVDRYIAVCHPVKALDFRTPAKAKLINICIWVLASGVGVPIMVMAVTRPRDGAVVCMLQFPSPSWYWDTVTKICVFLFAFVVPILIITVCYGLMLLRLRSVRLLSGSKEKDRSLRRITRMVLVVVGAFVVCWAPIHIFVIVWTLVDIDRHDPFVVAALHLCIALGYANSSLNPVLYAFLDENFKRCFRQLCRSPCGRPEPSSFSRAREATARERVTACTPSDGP
T2 sequence (P41144 whole entry): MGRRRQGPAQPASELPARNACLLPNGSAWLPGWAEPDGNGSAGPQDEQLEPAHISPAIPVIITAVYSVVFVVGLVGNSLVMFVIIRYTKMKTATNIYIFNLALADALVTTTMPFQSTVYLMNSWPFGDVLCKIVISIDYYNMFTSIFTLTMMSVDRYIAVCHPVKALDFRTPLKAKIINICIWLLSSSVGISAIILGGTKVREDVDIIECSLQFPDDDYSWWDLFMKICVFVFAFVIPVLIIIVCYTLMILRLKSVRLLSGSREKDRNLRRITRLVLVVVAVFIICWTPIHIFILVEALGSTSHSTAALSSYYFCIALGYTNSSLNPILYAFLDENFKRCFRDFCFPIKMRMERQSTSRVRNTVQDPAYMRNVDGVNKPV

| SMILES | responders at 50 mg/kg [1, 3] | responders at 100 mg/kg [1, 4] | IC50 (opiated delta receptor) | IC50 (opiated kappa receptor) | IC50 (opiated mu receptor; [5]) | further results |
| --- | --- | --- | --- | --- | --- | --- |
| NCC(CC(=O)O)c1ccc(Cl)cc1 (centres unmarked) [Baclofen, reference compound] |  |  |  |  |  | change in vivo at 2.5 mg/kg (bladder of the rat; [2]): 113%; change in vivo at 2.5 mg/kg (bladder of the rat; read-out: % variation volume): 32%; activity on the urinary tract compared to the reference compounds (in words) (bladder of the rat): most active comparative product in these tests |
| CCC(CC=Cc1ccccc1)(c1ccc(Cl)cc1)N(C)C (centres unmarked) [Example 31, a-cinnamyl-N,N-dimethyl-a-ethyl-p.chlorobenzylamine] | 100% | 50% | 1340 nM | 210 nM | 80 nM | activity on the urinary tract compared to the reference compounds (in words) (bladder of the rat): important activity |
| CCC(CC=Cc1ccccc1)(c1ccc(OC)cc1)N(C)C (centres unmarked) [Example 35, a-cinnamyl-N,N-dimethyl-a-ethyl-p.methoxybenzylamine] | 90% |  | 1280 nM | 290 nM | 60 nM | ED50 ([1]; Mus musculus, po, read-out: p.o.: DE50): 40.3 mg/kg; change in vivo at 1 mg/kg (bladder of the rat; [2]): 200%; change in vivo at 1 mg/kg (bladder of the rat; read-out: % variation volume): 39%; activity on the urinary tract compared to the reference compounds (in words) (bladder of the rat): important activity |
| CCC(CC=Cc1ccc(Cl)c(Cl)c1)(NC)c1ccc(OC)cc1 (centres unmarked) [Example 25, a-(3',4'-dichloro)cinnamyl-a-ethyl-N-methyl-p.methoxybenzylamine] |  | 50% | 1590 nM | 875 nM | 56 nM | change in vivo at 5 mg/kg (bladder of the rat; [2]): 85%; change in vivo at 5 mg/kg (bladder of the rat; read-out: % variation volume): 67% |
| CCC(CC=Cc1cc(OC)c(OC)c(OC)c1)(c1ccccc1)N(C)C (centres unmarked) [Example 37] |  |  | 150 nM | 230 nM | 100 nM | change in vivo at 5 mg/kg (bladder of the rat; [2]): 188%; change in vivo at 5 mg/kg (bladder of the rat; read-out: % variation volume): 53% |
| CCN(CC)CCOC(=O)C1(C2CCCCC2)CCCCC1 [Dicyclomine, reference compound] |  |  |  |  |  | change in vivo at 2.5 mg/kg (bladder of the rat; 2,5 mg/kg i.v., read-out: % variation pressure threshold): 28%; change in vivo at 2.5 mg/kg (bladder of the rat; 2,5 mg/kg i.v., read-out: % variation volume): 20% |
| CCC(CC=Cc1ccc(Cl)c(Cl)c1)(NC)c1ccc(Cl)cc1 (centres unmarked) [Example 26, a-(3' ,4'-dichloro)cinnamyl-a-ethyl-N-methyl-p.chlorobenzylamine] |  |  | 1070 nM | 458 nM | 28 nM | change in vivo at 5 mg/kg (bladder of the rat; [2]): 229%; change in vivo at 5 mg/kg (bladder of the rat; read-out: % variation volume): 93% |
| CCC(CC=Cc1ccccc1)(c1ccc(C)cc1)N(C)C (centres unmarked) [Example 33] |  |  | 1230 nM | 120 nM |  | IC50 (opiated mu receptor; read-out: CI50 affinity mu rec.; inhibition of 50% of radioligand bonds): 50 nM; activity on the urinary tract compared to the reference compounds (in words) (bladder of the rat): important activity |
| CCC(CC=Cc1ccccc1)(NC)c1ccc(Cl)cc1 (centres unmarked) [Example 19, a-cinnamyl-a-ethyl-N-methyl-p.chlorobenzylamine] | 70% |  | 3490 nM | 264 nM | 200 nM | change in vivo at 5 mg/kg (bladder of the rat; [2]): 354%; change in vivo at 5 mg/kg (bladder of the rat; read-out: % variation volume): 54% |
| CCC(CC=Cc1ccc(Cl)c(Cl)c1)(c1ccccc1)N(C)C (centres unmarked) [Example 36, a-(3',4'-dichloro)cinnamyl-N,N-dimethyl-a-ethyl-benzylamine] |  | 100% | 680 nM | 220 nM | 90 nM | change in vivo at 1 mg/kg (bladder of the rat; [2]): 125%; change in vivo at 1 mg/kg (bladder of the rat; read-out: % variation volume): 36%; activity on the urinary tract compared to the reference compounds (in words) (bladder of the rat): important activity |
| CCC(CC=Cc1ccccc1)(c1ccc(Cl)cc1)N(C)C (single isomer, unassigned; (+)) [Example 52, (+) a-cinnamyl-N,N-dimethyl-a-ethyl-p.chlorobenzylamine] | 70% | 90% |  | 99 nM | 7 nM | activity on the urinary tract compared to the reference compounds (in words) (bladder of the rat): important activity |
| CCC(CC=Cc1ccc(Cl)c(Cl)c1)(NC)c1ccc(C)cc1 (centres unmarked) [Example 24, a-(3',4'-dichloro)cinnamyl-a-ethyl-N-methyl-p.methylbenzylamin] |  |  | 1400 nM | 410 nM | 21 nM | p.o.: DE50 ([1]; p.o. route, value printed with a % sign): 73,5% |
| CCC(N)(CC=Cc1ccccc1)c1ccc(Cl)cc1 (single isomer, unassigned; (-)) [Example 17B, (-)a-cinnamyl-a-ethyl-p.chlorobenzylamine] |  |  |  |  | 11.4 nM | i.p.: % prot. (percentage of protected animals) ([1]; 50 mg/kg i.p., picrotoxine 24 mg/kg i.p. 30 min later, * p<0.05, ** p<0.01, *** p<0.001): 80%; p.o.: % prot. (percentage of protected animals) ([1]; 100 mg/kg p.o., picrotoxine 24 mg/kg i.p. 60 min later, * p<0.05, ** p<0.01, *** p<0.001): 50% |
| CCC(CC=Cc1ccsc1)(c1ccccc1)N(C)C (centres unmarked) [Example 56, N,N-dimethyl-a-ethyl-a-[30(3-thienyl)-2-propenyl]-benzylamine] | 70% | 80% |  |  |  |  |
| CCC(N)(CC=Cc1ccccc1)c1cccc(C(F)(F)F)c1 (centres unmarked) [Example 7, a-cinnamyl-a-ethyl-(m.trifluoromethyl)benzylamine] | 100% |  |  |  |  |  |
| CCC(C[C@@H]1C[C@H]1c1ccccc1)(c1cc(OC)c(OC)c(OC)c1)N(C)C (relative stereo) [Example 54, trans N,N-dimethyl-a-ethyl-a-(2-phenyl-1-cyclopropylmethyl)-3,4,5-trimethoxybenzylamine] | 70% |  |  |  |  |  |
| CCC(C[C@@H]1C[C@H]1c1ccccc1)(c1ccsc1)N(C)C (relative stereo) [Example 68, trans N,N-dimethyl-a-ethyl-a-(2-phenyl-1-cyclopropylmethyl)-3-trienylmethylamine] | 100% |  |  |  |  |  |
| CC(C)C(N)(CC=Cc1ccc(Cl)c(Cl)c1)c1ccccc1 (centres unmarked) [Example 11, a-(3',4'-dichloro)cinnamyl-a-isopropylbenzylamine] | 70% | 100% |  |  |  |  |
| CCC(CC=Cc1ccccc1)(NC)c1ccc(OC)cc1 (centres unmarked) [Example 22, a-cinnamyl-a-ethyl-N-methyl-p.methoxybenzylamine] | 80% | 100% |  |  |  |  |
| CCC(CC=Cc1ccco1)(c1cccs1)N(C)C (centres unmarked) [Example 64, N,N-dimethyl-a-ethyl-a-[3-(2-furyl)-2-propenyl]-2-thienylmethylamine] | 70% | 50% |  |  |  |  |
| CCC(CC=Cc1cccs1)(c1ccsc1)N(C)C (centres unmarked) [Example 69, N,N-dimethyl-a-ethyl-a-[3-(2-thienyl)-2-propenyl]-3-thienylmethylamine] | 90% | 80% |  |  |  |  |
